Experimental data as given in patent US6982277B2, “P53 inhibitors and therapeutic use of the same” (The Board of Trutees of the University of Illinois, priority 1999, dated 2006).
“Also recorded” adds a separate entry of the source.

Experiments:
p53 [1] = assay: p53 protein in UV-irradiated ConA cells (immunoblotting, two-dimensional gel, nuclear and cytoplasmic fractions); type: cell-based, mouse
Procedure: PFT-α was added to the cells before UV treatment and total cell lysates were prepared 18 hours later.
FIG. 6(d) illustrates that PFT-α changes the nuclear and cytoplasmic distribution of p53. Nuclear and cytoplasmic fractions were isolated from UV-treated ConA cells 6 hours after UV irradiation. p53 and p21^waf1 proteins were detected by immunoblotting. […] In particular, results of a gel shift assay using cell lysates from either untreated or UV-irradiated ConA cells grown in medium containing PFT-α are shown. […] The decline in the amount of bound DNA is proportional to the overall decrease in p53 content in the presence of PFT-α.

p53 [2] = assay: survival of mice after whole-body gamma irradiation; type: in vivo, mouse; conditions: 2.2 mg/kg i.p. five minutes prior to irradiation
Procedure: In particular, FIG. 7 illustrates that pifithrin-alpha protects mice from radiation-induced death. In this test, two different strains of mice (C57BL and Balb(c)) were treated with lethal and sublethal doses of whole-body gamma radiation. A comparison was made between (i) untreated unirradiated mice, (ii) unirradiated mice that received a single intraperitoneal (i.p.) injection of PFT-α, (iii) untreated gamma-irradiated mice, and (iv) mice injected intraperitoneally with PFT-α immediately before gamma irradiation.
In the plots of FIG. 7, whole-body gamma irradiated mice (60 total) were divided into four groups. Ten mice from each group were injected i.p. with pifithrin-alpha (2.2 mg/kg) five minutes prior to irradiation. […] The experiments were repeated at least three times with 10 mice per each experimental subgroup.

p53 [3] = assay: 14C-thymidine incorporation in tissues of gamma-irradiated mice (autoradiograms); type: in vivo, mouse; conditions: 10 Gy; single i.p. injection 2.2 mg/kg five minutes before irradiation
Procedure: Four-week-old p53-deficient mice and p53 wild-type (wt) mice were whole body gamma irradiated (10 Gy). Pifithrin-alpha was injected in one of the p53 wild-type animals five minutes before irradiation. ^14C-thymidine (10 mCi per animal) was injected intraperitoneally into each mouse 8 hours after irradiation. The mice were sacrificed 24 hours after irradiation and whole body sectioned (25 μm thick) using cryostatic microtome were prepared and exposed to X-ray film to monitor the distribution of ^14C in the tissue. FIG. 8 presents autoradiograms of representative sections. Arrows indicate ^14C-thymidine incorporation in the skin and intestine.

p53 [4] = assay: long-term survival and cancer development of mice after whole body radiation; type: in vivo; conditions: 30 survivors rescued from lethal gamma irradiation, seven months after irradiation
Procedure: Both wild-type (wt) mice and p53-deficient mice were irradiated. One group of the wild-type mice were treated with PFT-α. […] In contrast, fifteen untreated wild-type mice died within 100 days. The p53-deficient mice were unaffected for about 125 days, then all expired over the next 25–30 days.
Suppression of p53 typically results in the survival of cells that otherwise are eliminated by p53, which can increase the risk of new cancer development. For example, p53-deficient mice are extremely sensitive to radiation-induced tumorigenesis. […] Thus, temporary suppression of p53 activity is different from p53 deficiency in terms of cancer predisposition.

tumor = tumor volume in C57BL mice treated with cyclophosphamide; type: in vivo, mouse; conditions: CTX at days 0, 1, and 2, sixteen days
Procedure: FIG. 15 is a plot of tumor volume vs. days for C57BL mice treated with cyclophosphamide (CTX), with and without administration of PFT-β. The mice were treated with CTX at days 0, 1, and 2, and tumor volume was monitored for sixteen days.

[5] = toxicity comparison (FIG. 16); conditions: compared with PFT-α
Procedure: Then, a p53 inhibitor was applied in a concentration of 1 μM to 20 μM to the test cells in the presence of the p53 activator. Cytotoxicity of the p53 inhibitors also was determined by standard assays. An estimation of antiapoptotic activity of the p53 inhibitor compounds was based on an ability to suppress apoptotic cell death in standard cell systems sensitive to p53-dependent apoptosis (i.e., mouse embryonic fibroblasts transformed with Ela+ras, line C8, described by S. W. Lowe et al., Cell, 74, pp. 957–968 (1993)). p53 dependence of the compound activity was analyzed by testing its effect on p53-deficient cells (i.e., radiosensitivity or drug sensitivity of p53−/− mouse embryonic fibroblasts transformed with Ela+ras, line A4, described by Lowe et al., 1993).
(§1) As previously stated, the tests and experiments set forth in FIGS. 1–15 using PFT-α were repeated using PFT-β.

[6] = test system: p53-deficient tumor xenografts; assay: therapy response of p53-deficient tumors in mice; type: in vivo, mouse; conditions: mouse, in vivo
Source text: The above-described tests using PFT-α and PFT-β illustrate the therapeutic use of temporary p53 inhibitors to reduce the side effects of radiation therapy or chemotherapy for human cancers that have lost functional p53.

p53 [7] = assay: tests and experiments of FIGS. 1–15 repeated using PFT-β
Source text: The results of these tests are illustrated in attached FIGS. 1–16. These figures, in general, are based on tests performed on compounds of structural formulae (V) and (VI). In the following Figures, test results illustrated for compound (V), i.e., PFT-α, were repeated for compound (VI), i.e., PFT-β.
as §1

[8] = toxicity of chemotherapeutics with p53 inhibitor; conditions: mouse, in vivo
p53 [9] = assay: suppression of p53-dependent transcriptional activation (lacZ, X-gal staining) in ConA cells treated with doxorubicin; type: cell-based, mouse; conditions: 0.2 μg/ml doxorubicin, 24 hours; test compounds about 10 to about 20 μM

Structure (SMILES)	nuclear and cytoplasmic distribution of p53 (p53 [1]; 6 hours after UV irradiation)	phosphorylation / post-translational modifications of p53 (p53 [1]; after DNA-damaging treatments)	survival at higher, lethal doses of irradiation (p53 [2])	p53-mediated growth arrest in vivo (14C-thymidine incorporation) (p53 [3])	tumors or pathological lesions in survivors / tumor incidence in irradiated animals (p53 [4])	tumor growth (tumor volume) (tumor)	toxicity [5]	efficacy of chemo- or radiation therapy of p53 deficient mouse tumors [6]	test results compared with PFT-α (p53 [7])	toxicity of chemotherapeutics [8]	suppression of p53-dependent lacZ expression (X-gal) (p53 [9])
Cc1ccc(-c2cn3c4c(sc3n2)CCCC4)cc1 [PFT-β, 2-(4-methylphenyl)-5,6,7,8-tetrahydrobenzo[d]imidazo[2,1-b]thiazole]	reduce nuclear accumulation of p53	do not effect either post-translational modifications of p53 or the DNA binding affinity of p53	rescue mice from lethal doses of gamma radiation using a single i.p. injection	suppress p53-dependent radiation-induced growth arrest in rapidly proliferating mouse tissues	do not result in a high incidence of tumors in irradiated animals	substantial decrease in tumor growth	substantially lower than the toxicity of PFT-α	do not reduce the efficacy of chemo- or radiation therapy of p53 deficient mouse tumors	essentially identical to test results using PFT-α; also recorded: essentially identical to the results from the tests using PFT-α	reduce the toxicity of chemotherapeutics	
N=c1sc2c(n1CC(=O)c1ccc(I)cc1)CCCC2 [86B10, 2-[2-imino-4,5,6,7-tetrahydro-1,3-benzothiazol-3(2H)-yl]-1-(4-iodophenyl)-1-ethanone]											similar, but weaker, p53-inhibition, effect than PFT-α
